Reference: patent publication US7537906B2, “Apoptosis inducer and method of screening for a substance inhibiting acylated homoserine lactone” (priority 2003, dated 2009)

What was measured:
[1] = tested on: PARP (poly-ADP ribose polymerase); assay: PARP activity by Western blot (cleaved PARP) in CaCo-2 cells; type: cell-based, human
Method: The activities of caspase (caspase-3 and caspase-9) and PARP (poly-ADP ribose polymerase) were measured in a manner similar to those in Examples 1 and 2 by Western blot analysis using each of anti-activated (cleaved) caspase antibodies, that is, an anti-cleaved caspase-3 antibody, an anti-cleaved caspase-9 antibody (D330) and an anti-cleaved PARP antibody (D214).
N-(3-oxododecanoyl)-L-homoserine lactones with final concentrations of 30 μM and 100 μM were each added to cultured CaCo-2 cells. Caspase-3, caspase-9 and PARP activities were analyzed over time by Western blot at 0 hours, 1 hour, 2 hours, 4 hours, 6 hours, 8 hours and 10 hours after culture. […] Whereas at 30 μM, activated caspase-3 began to be detected 1 hour after stimulation and the activity lasted until 4 hours after stimulation, at 100 μM the activity peaked at 6 hours and lasted until 10 hours after stimulation. Cleaved caspase-9 and cleaved PARP were detected by reprobing each membrane.
Next, 3 hours of reaction with N-(3-oxododecanoyl)-L-homoserine lactone was carried out at concentrations of 0, 1, 10, 30, and 100 μM, and then caspase and PARP activities were measured.

[2] = tested on: ERK; assay: MAP kinase activity by Western blot in CaCo-2 cells: phosphorylated ERK; type: cell-based, human
Method: A CaCo-2 carcinoma cell line of human colon cancer was purchased from American Type Culture Collection (ATCC), and cultured at 37° C. in the presence of 5% CO2 using a DMEM medium containing 10% FCS, 1% NEAA and 1% P/S (100 units/ml penicillin and 100 μg/ml streptomycin).
6×10^5 CaCo-2 cells were inoculated per dish using 6 cm dishes (NUNC), washed twice with phosphate buffered saline (PBS) (-), and then cultured in a serum-free DMEM medium containing 1% NEAA for 24 hours. Subsequently, at a final concentration of 100 μM, homoserine lactone hydrochloride and N-(3-oxododecanoyl)-L-homoserine lactone were each added, and then each solution was allowed to react for 10 minutes. Furthermore, purified acylated homoserine lactone used herein had been dissolved in DMSO in a concentration 400 times higher than the target final concentration, and then subjected to filter sterilization (φ 0.22 μm). As a control, DMSO with a final concentration of 0.25% was used. In addition, α-tubulin was used as an internal standard.
After reaction, the product was washed twice with cold PBS (-), and then frozen at −80° C. The cells were thawed on ice. 200 μl of a lysis buffer (50 mM HEPES, pH 7.5, 50 mM NaCl, 1 mM EDTA, 1.5 mM MgCl2, 1% Triton X-100, 10% glycerin, 10 mM sodium pyrophosphate, 1 mM Na3VO4, 100 mM NaF, 1 mM PMSF, 10 μg/ml aprotinin and 10 μg/ml leupeptin) was added to the cells, and then the cells were scraped off using a scraper. The cells were allowed to stand on ice for 20 minutes, and then centrifuged at 14000 rpm at 4° C. for 15 minutes, thereby collecting the supernatant. Concentration of the collected protein was measured, and then the protein equivalent to 50 μg was subjected to SDS-PAGE. After electrophoresis, the product was blotted on a PVDF membrane. When phosphorylated ERK, JNK, p38 and Akt were measured, blocking was carried out with 0.1% Tween 20 (TBS-T) containing 5% skim milk/Tris-buffered saline. As primary antibodies, an anti-phospho-p44/42 MAP kinase antibody, an anti-phospho-SAPK/JNK antibody, an anti-phospho-p38 MAP kinase antibody, and an anti-phospho-Akt ([…]) antibody were each used. As a secondary antibody, an HRP-labeled anti-rabbit IgG antibody was used. For the α-tubulin used as an internal standard, blocking was carried out with 5% bovine serum albumin (BSA)/TBS-T, and an anti-α-tubulin (Ab-1) antibody and an HRP-labeled anti-mouse IgG antibody were used as a primary antibody and a secondary antibody, respectively. For band detection, Renaissance™ Western Blot Chemiluminescence […] Reagent Plus (NEN) or Western Blotting Luminol Reagent (SANTA CRUZ BIOTECHNOLOGY) was used.
After cell culture, MAP kinase activity and Akt activity were analyzed by Western blot in a manner similar to that used in (1), except that N-(3-oxododecanoyl)-L-homoserine lactones in final concentrations of 0 μM (0.25% DMSO), 1 μM, 10 μM, 30 μM and 100 μM were each added and each solution was allowed to react for 10 minutes (FIG. 8).
After cell culture, N-(3-oxododecanoyl)-L-homoserine lactone with final concentrations of 30 μM and 100 μM were added. For each case, MAP kinase activity and Akt activity were measured by Western blot in a manner similar to that in (1), except for carrying out stimulation with acylated homoserine lactone in a short time course of 0, 5, 10, 30 and 60 minutes (FIG. 11), and in a long time course of 0, 10 minutes, 60 minutes, 2 hours, 4 hours, 6 hours, 8 hours and 10 hours (FIG. 12). In the case of stimulation at 30 μM, both ERK and p38 activities increased with a peak at 10 minutes. However, while ERK activity returned to the base level within 30 minutes, p38 activity lasted until 4 hours after stimulation. The inhibition of Akt activity in the case of stimulation at 30 μM peaked at 5 minutes and lasted until 60 minutes after stimulation, and returned to the base level within 2 hours. ERK activation took place with two steps in the case of stimulation at 100 μM. […]

Compound: CCCCCCCCCC(=O)CC(=O)N[C@H]1CCOC1=O [N-(3-oxododecanoyl)-L-homoserine lactone]
- cleaved PARP over time ([1]; 30 μM and 100 μM): behavior similar to that of cleaved caspase-9
- concentration at which cleaved PARP was detected ([1]; 3 hours of reaction, 0, 1, 10, 30 and 100 μM): ≥ 30 µM
- ERK activity increase ([2]; 10 μM, 10 minutes): 1.5 times
- ERK activity increase ([2]; 30 μM, 10 minutes): 7.7 times
- ERK activity increase ([2]; 100 μM, 10 minutes): 9.8 times
- activation of ERK ([2]; 100 μM, 10 minutes): promoted
- concentration at which levels of phosphorylated ERK significantly increased ([2]; 10 minutes): ≥ 10 µM
- time for ERK activity to return to the base level ([2]; stimulation at 30 μM): ≤ 30 min
- time of peak ERK activity ([2]; stimulation at 30 μM): 10 min
- time at which ERK activity began to increase, second step ([2]; stimulation at 100 μM): 4 h
- time for ERK activity to return to the base level, first step ([2]; stimulation at 100 μM): ≤ 2 h
- time for ERK activity to return to the base level, second step ([2]; stimulation at 100 μM): ≤ 10 h
- time of peak ERK activity, first step ([2]; stimulation at 100 μM): 5 min
- time of peak ERK activity, second step ([2]; stimulation at 100 μM): 8 h
